According to paper PMC5439695 (PLoS ONE, 2017):
Read-outs that look alike come from different tables or passages of the source.

Experiments:
[1] = tested on: HEK293 cells; details: HEK293 flor; for hek293_flor_bin: kinetics bin; for hek293_flor_emax_0 / hek293_flor_pod_0 / hek293_flor_wauc_0: time point 0; for hek293_flor_emax_8 / hek293_flor_pod_8 / hek293_flor_wauc_8: time point 8; for hek293_flor_emax_16 / hek293_flor_pod_16 / hek293_flor_wauc_16: time point 16; for hek293_flor_emax_24 / hek293_flor_pod_24 / hek293_flor_wauc_24: time point 24; for hek293_flor_emax_32 / hek293_flor_pod_32 / hek293_flor_wauc_32: time point 32; for hek293_flor_emax_40 / hek293_flor_pod_40 / hek293_flor_wauc_40: time point 40; on hek293 flor emax 0: unit not given here
[2] = tested on: HepG2 cells; details: HepG2 glo; for hepg2_glo_bin: kinetics bin; for hepg2_glo_emax_0 / hepg2_glo_pod_0 / hepg2_glo_wauc_0: time point 0; for hepg2_glo_emax_8 / hepg2_glo_pod_8 / hepg2_glo_wauc_8: time point 8; for hepg2_glo_emax_16 / hepg2_glo_pod_16 / hepg2_glo_wauc_16: time point 16; for hepg2_glo_emax_24 / hepg2_glo_pod_24 / hepg2_glo_wauc_24: time point 24; for hepg2_glo_emax_32 / hepg2_glo_pod_32 / hepg2_glo_wauc_32: time point 32; for hepg2_glo_emax_40 / hepg2_glo_pod_40 / hepg2_glo_wauc_40: time point 40
[3] = tested on: HepG2 cells; assay: CellTox Green Cytotoxicity Assay (flor) in HepG2, HepG2[flor]; type: cell-based, human; details: HepG2 flor; for hepg2_flor_bin: kinetics bin; for hepg2_flor_emax_0 / hepg2_flor_pod_0 / hepg2_flor_wauc_0: time point 0; for hepg2_flor_emax_8 / hepg2_flor_pod_8 / hepg2_flor_wauc_8: time point 8; for hepg2_flor_emax_16 / hepg2_flor_pod_16 / hepg2_flor_wauc_16: time point 16; for hepg2_flor_emax_24 / hepg2_flor_pod_24 / hepg2_flor_wauc_24: time point 24; for hepg2_flor_emax_32 / hepg2_flor_pod_32 / hepg2_flor_wauc_32: time point 32; for hepg2_flor_emax_40 / hepg2_flor_pod_40 / hepg2_flor_wauc_40: time point 40;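 on hepg2 flor emax 0: percent activity versus DMSO-only wells with baseline rescaled to 0%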;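 on hepg2 flor emax 40: percent activity versus DMSO-only wells with baseline rescaled to 0%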
[4] = tested on: HEK293 and HepG2 cell lines
[5] = tested on: HEK293 cells; details: HEK293 glo; for hek293_glo_bin: kinetics bin; for hek293_glo_emax_0 / hek293_glo_pod_0 / hek293_glo_wauc_0: time point 0; for hek293_glo_emax_8 / hek293_glo_pod_8 / hek293_glo_wauc_8: time point 8; for hek293_glo_emax_16 / hek293_glo_pod_16 / hek293_glo_wauc_16: time point 16; for hek293_glo_emax_24 / hek293_glo_pod_24 / hek293_glo_wauc_24: time point 24; for hek293_glo_emax_32 / hek293_glo_pod_32 / hek293_glo_wauc_32: time point 32; for hek293_glo_emax_40 / hek293_glo_pod_40 / hek293_glo_wauc_40: time point 40; on hek293 flor emax 0: unit not given here

O=C(O)c1ccccc1O.Oc1cccc2cccnc12 [8-Quinolinol Salicylic acid (1:1)]
hek293_flor_auc [1]: 0 | hek293_flor_time [1]: 48 | hek293_flor_bin [1]: inactive | hek293_flor_emax_0 [1]: 0 | hek293_flor_pod_0 [1]: -4.417 | hek293_flor_wauc_0 [1]: 0 | hek293_flor_emax_8 [1]: 0 | hek293_flor_pod_8 [1]: -4.417 | hek293_flor_wauc_8 [1]: 0 | hek293_flor_emax_16 [1]: 0 | hek293_flor_pod_16 [1]: -4.417 | hek293_flor_wauc_16 [1]: 0 | hek293_flor_emax_24 [1]: 0 | hek293_flor_pod_24 [1]: -4.417 | hek293_flor_wauc_24 [1]: 0 | hek293_flor_emax_32 [1]: 0 | hek293_flor_pod_32 [1]: -4.417 | hek293_flor_wauc_32 [1]: 0 | hek293_flor_emax_40 [1]: 0 | hek293_flor_pod_40 [1]: -4.417 | hek293_flor_wauc_40 [1]: 0 | hepg2_glo_auc [2]: 0 | hepg2_glo_time [2]: 48 | hepg2_glo_bin [2]: inactive | hepg2_glo_emax_0 [2]: 0 | hepg2_glo_pod_0 [2]: -4.417 | hepg2_glo_wauc_0 [2]: 0 | hepg2_glo_emax_8 [2]: 0 | hepg2_glo_pod_8 [2]: -4.417 | hepg2_glo_wauc_8 [2]: 0 | hepg2_glo_emax_16 [2]: 0 | hepg2_glo_pod_16 [2]: -4.417 | hepg2_glo_wauc_16 [2]: 0 | hepg2_glo_emax_24 [2]: 0 | hepg2_glo_pod_24 [2]: -4.417 | hepg2_glo_wauc_24 [2]: 0 | hepg2_glo_emax_32 [2]: 0 | hepg2_glo_pod_32 [2]: -4.417 | hepg2_glo_wauc_32 [2]: 0 | hepg2_glo_emax_40 [2]: 0 | hepg2_glo_pod_40 [2]: -4.417 | hepg2_glo_wauc_40 [2]: 0 | hepg2_flor_auc [3]: 0 | hepg2_flor_time [3]: 48 | hepg2_flor_bin [3]: inactive | hepg2_flor_emax_0 [3]: 0 | hepg2_flor_pod_0 [3]: -4.417 | hepg2_flor_wauc_0 [3]: 0 | hepg2_flor_emax_8 [3]: 0 | hepg2_flor_pod_8 [3]: -4.417 | hepg2_flor_wauc_8 [3]: 0 | hepg2_flor_emax_16 [3]: 0 | hepg2_flor_pod_16 [3]: -4.417 | hepg2_flor_wauc_16 [3]: 0 | hepg2_flor_emax_24 [3]: 0 | hepg2_flor_pod_24 [3]: -4.417 | hepg2_flor_wauc_24 [3]: 0 | hepg2_flor_emax_32 [3]: 0 | hepg2_flor_pod_32 [3]: -4.417 | hepg2_flor_wauc_32 [3]: 0 | hepg2_flor_emax_40 [3]: 0 | hepg2_flor_pod_40 [3]: -4.417 | hepg2_flor_wauc_40 [3]: 0 | information [4]: 0 | hek293_glo_auc [5]: 0 | hek293_glo_time [5]: 48 | hek293_glo_bin [5]: inactive | hek293_glo_emax_0 [5]: 0 | hek293_glo_pod_0 [5]: -4.417 | hek293_glo_wauc_0 [5]: 0 | hek293_glo_emax_8 [5]: 0 | hek293_glo_pod_8 [5]: -4.417 | hek293_glo_wauc_8 [5]: 0 | hek293_glo_emax_16 [5]: 0 | hek293_glo_pod_16 [5]: -4.417 | hek293_glo_wauc_16 [5]: 0 | hek293_glo_emax_24 [5]: 0 | hek293_glo_pod_24 [5]: -4.417 | hek293_glo_wauc_24 [5]: 0 | hek293_glo_emax_32 [5]: 0 | hek293_glo_pod_32 [5]: -4.417 | hek293_glo_wauc_32 [5]: 0 | hek293_glo_emax_40 [5]: 0 | hek293_glo_pod_40 [5]: -4.417 | hek293_glo_wauc_40 [5]: 0

Cc1cc(N)c2cc(NC(=O)Nc3ccc4nc(C)cc(N)c4c3)ccc2n1.Cl.Cl [Aminoquinuride dihydrochloride]
hek293_flor_auc [1]: 0 | hek293_flor_time [1]: 48 | hek293_flor_bin [1]: inactive | hek293_flor_emax_0 [1]: 0 | hek293_flor_pod_0 [1]: -4.417 | hek293_flor_wauc_0 [1]: 0 | hek293_flor_emax_8 [1]: 0 | hek293_flor_pod_8 [1]: -4.417 | hek293_flor_wauc_8 [1]: 0 | hek293_flor_emax_16 [1]: 0 | hek293_flor_pod_16 [1]: -4.417 | hek293_flor_wauc_16 [1]: 0 | hek293_flor_emax_24 [1]: 0 | hek293_flor_pod_24 [1]: -4.417 | hek293_flor_wauc_24 [1]: 0 | hek293_flor_emax_32 [1]: 0 | hek293_flor_pod_32 [1]: -4.417 | hek293_flor_wauc_32 [1]: 0 | hek293_flor_emax_40 [1]: 0 | hek293_flor_pod_40 [1]: -4.417 | hek293_flor_wauc_40 [1]: 0 | hepg2_glo_auc [2]: 0 | hepg2_glo_time [2]: 48 | hepg2_glo_bin [2]: inactive | hepg2_glo_emax_0 [2]: 0 | hepg2_glo_pod_0 [2]: -4.417 | hepg2_glo_wauc_0 [2]: 0 | hepg2_glo_emax_8 [2]: 0 | hepg2_glo_pod_8 [2]: -4.417 | hepg2_glo_wauc_8 [2]: 0 | hepg2_glo_emax_16 [2]: 0 | hepg2_glo_pod_16 [2]: -4.417 | hepg2_glo_wauc_16 [2]: 0 | hepg2_glo_emax_24 [2]: 0 | hepg2_glo_pod_24 [2]: -4.417 | hepg2_glo_wauc_24 [2]: 0 | hepg2_glo_emax_32 [2]: 0 | hepg2_glo_pod_32 [2]: -4.417 | hepg2_glo_wauc_32 [2]: 0 | hepg2_glo_emax_40 [2]: 0 | hepg2_glo_pod_40 [2]: -4.417 | hepg2_glo_wauc_40 [2]: 0 | hepg2_flor_auc [3]: 0 | hepg2_flor_time [3]: 48 | hepg2_flor_bin [3]: inactive | hepg2_flor_emax_0 [3]: 0 | hepg2_flor_pod_0 [3]: -4.417 | hepg2_flor_wauc_0 [3]: 0 | hepg2_flor_emax_8 [3]: 0 | hepg2_flor_pod_8 [3]: -4.417 | hepg2_flor_wauc_8 [3]: 0 | hepg2_flor_emax_16 [3]: 0 | hepg2_flor_pod_16 [3]: -4.417 | hepg2_flor_wauc_16 [3]: 0 | hepg2_flor_emax_24 [3]: 0 | hepg2_flor_pod_24 [3]: -4.417 | hepg2_flor_wauc_24 [3]: 0 | hepg2_flor_emax_32 [3]: 0 | hepg2_flor_pod_32 [3]: -4.417 | hepg2_flor_wauc_32 [3]: 0 | hepg2_flor_emax_40 [3]: 0 | hepg2_flor_pod_40 [3]: -4.417 | hepg2_flor_wauc_40 [3]: 0 | information ([4]; any activity in any time point/assay): 0 | hek293_glo_auc [5]: 0 | hek293_glo_time [5]: 48 | hek293_glo_bin [5]: inactive | hek293_glo_emax_0 [5]: 0 | hek293_glo_pod_0 [5]: -4.417 | hek293_glo_wauc_0 [5]: 0 | hek293_glo_emax_8 [5]: 0 | hek293_glo_pod_8 [5]: -4.417 | hek293_glo_wauc_8 [5]: 0 | hek293_glo_emax_16 [5]: 0 | hek293_glo_pod_16 [5]: -4.417 | hek293_glo_wauc_16 [5]: 0 | hek293_glo_emax_24 [5]: 0 | hek293_glo_pod_24 [5]: -4.417 | hek293_glo_wauc_24 [5]: 0 | hek293_glo_emax_32 [5]: 0 | hek293_glo_pod_32 [5]: -4.417 | hek293_glo_wauc_32 [5]: 0 | hek293_glo_emax_40 [5]: 0 | hek293_glo_pod_40 [5]: -4.417 | hek293_glo_wauc_40 [5]: 0
